Here are results for 1 compound from ChEMBL document CHEMBL5338771, “Trioxacarcin A Interactions with G-Quadruplex DNA Reveal Its Potential New Targets as an Anticancer Agent” (J Med Chem, 2023).

Active and inactive are the calls of the source. No cut-off for these calls is given here.

Format in all cases: nucleic-acid assay
The test system of experiment [1] is Quadruplex DNA. As to the kind of experiment: Binding affinity to RET G4 quadruplex DNA (unknown origin) by measuring chemical shift change for 0 to 21 days by 1D 1H-NMR analysis. Conditions: time 0-21 day.
Experiment [2] relates to Quadruplex DNA. Kind of experiment: Covalent binding affinity to RET G4 quadruplex DNA (unknown origin) by measuring molecular weight for complex formation by ESI mass spectrum analysis.
For experiment [3], the system named is Quadruplex DNA. As to the kind of experiment: Covalent binding affinity to RET G4 quadruplex DNA (unknown origin) assessed as stable complex formation measured after 9 days by mass spectrum analysis. The settings on record: time 9.0 day.
Experiment [4] has as its system Quadruplex DNA. Kind of experiment: Covalent binding affinity to RET G4 quadruplex DNA (unknown origin) assessed as stable complex formation by measuring molecular weight peak after 19 days by mass spectrum analysis. The settings on record: time 19.0 day.
For experiment [5], the system named is Quadruplex DNA. As to the kind of experiment: Covalent binding affinity to RET G4 quadruplex DNA (unknown origin) assessed as alkylation at G4 base at 98 degC for 5 mins by DNA cleavage assay.
The subject of experiment [6] is Quadruplex DNA. As to the kind of experiment: Covalent binding affinity to RET G4 quadruplex DNA (unknown origin) assessed as alkylation at G6 base by DNA cleavage assay.
Experiment [7] deals with Quadruplex DNA. As to the kind of experiment: Covalent binding affinity to RET G4 quadruplex DNA (unknown origin) assessed as alkylation at G14 base by DNA cleavage assay.
Experiment [8] concerns Quadruplex DNA. As to the kind of experiment: Induction of DNA stabilization in abasic-basic RET G4 quadruplex DNA (unknown origin) assessed as melting temperature in 100 mM K+ buffer solution by DSC spectra analysis. (In DSC, transitions show as peaks or steps in heat flow.)
Experiment [9] has as its system Quadruplex DNA. As to the kind of experiment: Induction of DNA stabilization in free RET G4 quadruplex DNA (unknown origin) assessed as melting temperature in 100 mM K+ buffer solution by DSC spectra analysis.
Experiment [10] relates to Quadruplex DNA. As to the kind of experiment: Induction of DNA stabilization in RET G4 quadruplex DNA (unknown origin) containing 2'-F base G4 assessed as melting temperature (reference value: 71.99 degreeC).
Experiment [11] concerns Quadruplex DNA. Kind of experiment: Binding affinity to c-MYC G4 quadruplex DNA (unknown origin) by 1D 1H-NMR analysis.

Turning to `COc1c2c(c(O)c3c4c(c(C)cc13)C1O[C@@]3(C(OC)OC)OC1[C@](O[C@H]1C[C@@H](O)[C@@](O)(C(C)=O)[C@H](C)O1)(O4)C31CO1)C(=O)[C@@H](O)C[C@@H]2OC1C[C@](C)(O)[C@@H](OC(C)=O)[C@@H](C)O1` (stereo partly specified), the outcome in experiment [1], in experiment [3], in [5] and in [11] was Active. The Activity in experiment [2] turned out to be 6450 Da; in experiment [4], 7330 Da. In addition, the result in experiment [6] and in experiment [7] was inactive. Further, the values for the Tm in [8], in experiment [9] and in [10] were 78 °C, 91 °C and 74.7 °C, respectively.
